Measured values from patent publication US6800630B2, “Pyrimidine derivatives having antitumor effect” (Shionogi & Co., Ltd., priority 2000, dated 2004).
Values after ≈ are worked out from the molar mass of the structure shown.

Key:
Format in all cases: cell-based
[1] = system: signal derived from Ras oncogene products (DT-R cells, pRRE3-luc transfected v-ki-ras-transformed NIH373 cells); test: Inhibitory effect against cellular signaling derived from Ras oncogene products: RRE-luciferase reporter, Minimal Active Concentration (MAC) at which DT-C and DT-R activities dissociate; conditions: minimal concentration at which luciferase activities of DT-C and DT-R cells dissociated
Excerpt: (§1) Test Example 1 Inhibitory effect against cellular signaling derived from Ras oncogene products
(§2) Based on the reporter plasmid (pGV-P (Toyo Ink, Japan)), in which luciferase gene was ligated to SV40-derived minimal promoter, we constructed a plasmid designated pRRE3-luc by inserting 3 copies of chemically synthesized oligonucleotides (Sequence: CAGGATATGACTCT, derived from mouse NVL-3 (M. A. Reddy et al.(1992)Mol. Endocrinol., 6, 1051)) into upstream of the promoter. v-ki-ras-transformed NIH373 cells (DT cells, provided by Dr. Makoto Noda (Kyoto Univ., School of medicine)) were transfected with this plasmid by liposome-mediated transfection and transfected cell lines stably incorporated and maintained each plasmid were obtained. We named pGV-P and pRRE3-transfected cell line as DT-C and DT-R, respectively and used in the assay described below.
(§3) i) All the cell lines were cultured in Dulbecco's Modified Essential Medium (DMEM: 10% Fetal Calf Serum(FCS: Hyclone, USA)) including […] kanamycin (Meiji Seika, Japan) in humidified incubator under condition of 5% CO2 at 37° C.
(§4) ii) DT-C and DT-R cells were seeded at 2500 cells/well into flat-bottom 96 well multiplate (Sumitomo bakelite) and incubated for 24 hours.
(§5) iii) Test compounds were prepared as 1 mg/ml DMSO solution.
(§6) iv) The solution of test compounds were added to the culture. Tested compounds are used at the concentration from […] to 0.51 ng/ml with 3-fold dilution.
(§7) v) After 24 hours, the culture supernatant was completely aspirated and 20 μl of cell-lysing solution (PGC-50 (Toyo Ink, Japan)) was added before cells were dried up. In order to lyse the cells completely, multiwell plates were left at room temperature for 10 to 30 min. The plates were wrapped up and stored at −20° C. till the day of measurement.
(§8) i) Melt the samples by putting 96 well multiplate at 37° C. and add 90 μl/well 25 mM Tris (pH 7.5).
(§9) ii) Transfer 50 μl of the sample (110 μl) to the 96 well microplate (Microlite 1 (Dynatech)) for measurement.
(§10) iii) Measure the samples by the luminometer, LUMINOUS CT9000D (Dia-Yatron, Japan). We used Pickagene luminescence kit PGL2000 or LT2.0 (Toyo Ink, Japan) as enzyme substrates for luminescence measurement (50 μl/well).
(§11) i) The luciferase activity of DT-C cells and DT-R cells were plotted in the graph where the relative activity and the compound concentration were expressed as Y-axis and X-axis, respectively. We judged by the degree of dissociation between the activities of DT-C cells and DT-R cells as an index.
ii) Concretely, efficacy of the compound was expressed by two values described below.
a) Among the points of concentration tested, the minimal concentration (Minimal Active Concentration: MAC), at which the activities of DT-C cells and DT-R cells dissociated, was shown as an index of efficacy of the compound.

[2] = system: DT-C cells (pGV-P transfected v-ki-ras-transformed NIH373 cells); test: Luciferase activity of DT-C control cells (IC50-C), index of non-specific transcription-inhibitory effect or cytotoxicity; conditions: tested concentration nearest to 50% inhibition in DT-C cells
Excerpt: as §1, §2, §3, §4, §5, §6, §7, §8, §9, §10, §11
b) Among the points of concentration tested, the concentration which is the nearest to 50% inhibition concentration at DT-C cells (IC50-C), was shown as an index of non-specific transcription-inhibitory effect or of cytotoxicity. In case of positive compounds, 50% inhibition concentration in DT-C cells which was higher than the active concentration was expressed as IC50-C.

H460 = test: In vitro cell growth inhibition test, MTT assay; conditions: MTT assay 4 days after compound addition
Excerpt: [The source words this procedure for another cell line and reports this cell line under the same test.] (§12) Test Example 2 In vitro cell growth inhibition test Cells and MTT assay
(§13) Human squamous lung cancer […], human squamous lung cancer Ma44, human lung adenocarcinoma A549, human colon cancer HT29 and human pancreas cancer PANC-1 were used.

human colon cancer HT29 = test: In vitro cell growth inhibition test, MTT assay; conditions: MTT assay 4 days after compound addition
Excerpt: as §12, §13

[3] = system: human lung adenocarcinoma A549; test: In vitro cell growth inhibition test, MTT assay; conditions: MTT assay 4 days after compound addition
Excerpt: as §12, §13

[4] = system: human pancreas cancer PANC-1; test: In vitro cell growth inhibition test, MTT assay; conditions: MTT assay 4 days after compound addition
Excerpt: as §12, §13

[5] = system: human squamous lung cancer Ma44; test: In vitro cell growth inhibition test, MTT assay; conditions: MTT assay 4 days after compound addition
Excerpt: as §12, §13

[6] = system: human squamous lung cancer RERF-RC-AI; test: In vitro cell growth inhibition test, MTT assay; conditions: MTT assay 4 days after compound addition
Excerpt: as §12, §13

SMILES | MAC (Minimal Active Concentration) [1] [µg/mL] | IC50 (IC50-C) [2] [µg/mL] | IC50 H460 (H460) [ng/mL] | IC50 HT-29 (human colon cancer HT29) [ng/mL] | IC50 A549 [3] [ng/mL] | IC50 PANC-1 [4] [ng/mL] | IC50 Ma44 [5] [ng/mL] | IC50 RERF-LC-AI [6] [ng/mL]
CCCNC(=Nc1nc(C)ncc1CSc1nnc(-c2ccc([N+](=O)[O-])cc2)o1)NN(C)C [Compound A-18] | 0.00457 | >10 | 27.5 (≈ 0.0583 µM) | 0.4 (≈ 0.000848 µM) | 51.4 (≈ 0.109 µM) | 0.4 (≈ 0.000848 µM) | 0.4 (≈ 0.000848 µM) | 0.4 (≈ 0.000848 µM)
CCCNC(=Nc1nc(C)ncc1CSc1nnc(-c2ccc(C)cc2)o1)SC [Compound A-17] | 0.0412 | >10 | 15 (≈ 0.035 µM) | 15 (≈ 0.035 µM) | 17.4 (≈ 0.0406 µM) | 10.7 (≈ 0.025 µM) | 24.1 (≈ 0.0562 µM) | 13.2 (≈ 0.0308 µM)
CCCSC(=Nc1nc(C)ncc1CSc1nnc(-c2ccc([N+](=O)[O-])cc2)o1)NC [Compound A-7] | 0.123 | 3.33 (≈ 7.25 µM) | 3.8 (≈ 0.00827 µM) | 3.6 (≈ 0.00783 µM) | 2.1 (≈ 0.00457 µM) | 0.6 (≈ 0.00131 µM) | 1.6 (≈ 0.00348 µM) | 1.3 (≈ 0.00283 µM)
CCCSC(=Nc1nc(C)ncc1CSc1nnc(-c2ccc([N+](=O)[O-])cc2)o1)NCC [Compound A-8] | 0.123 | >10 | 6.8 (≈ 0.0144 µM) | 41.4 (≈ 0.0874 µM) | 9.3 (≈ 0.0196 µM) | 37.1 (≈ 0.0783 µM) | 34.1 (≈ 0.072 µM) | 27.8 (≈ 0.0587 µM)
CCCSC(=Nc1nc(C)ncc1CSc1nnc(-c2ccc(N)cc2)o1)NC [Compound A-15] | 0.00152 | >10 | 15.3 (≈ 0.0356 µM) | 10.3 (≈ 0.024 µM) | 11.1 (≈ 0.0258 µM) | 12.4 (≈ 0.0289 µM) | 12.7 (≈ 0.0296 µM) | 6.5 (≈ 0.0151 µM)
CCCSC(=Nc1nc(C)ncc1CSc1nnc(-c2ccc(N)cc2)o1)NCC [Compound A-16] | <0.000508 | >10 | 10.7 (≈ 0.0241 µM) | 8.1 (≈ 0.0183 µM) | 14.6 (≈ 0.0329 µM) | 6.5 (≈ 0.0147 µM) | 13.6 (≈ 0.0307 µM) | 7.3 (≈ 0.0165 µM)
